Experiments:
[1] = molecular target: T1, Serine/threonine-protein kinase Nek1 (Homo sapiens) (UniProt Q96PY6); settings: Compound concentration 1000.0 nM
T1 sequence (whole entry): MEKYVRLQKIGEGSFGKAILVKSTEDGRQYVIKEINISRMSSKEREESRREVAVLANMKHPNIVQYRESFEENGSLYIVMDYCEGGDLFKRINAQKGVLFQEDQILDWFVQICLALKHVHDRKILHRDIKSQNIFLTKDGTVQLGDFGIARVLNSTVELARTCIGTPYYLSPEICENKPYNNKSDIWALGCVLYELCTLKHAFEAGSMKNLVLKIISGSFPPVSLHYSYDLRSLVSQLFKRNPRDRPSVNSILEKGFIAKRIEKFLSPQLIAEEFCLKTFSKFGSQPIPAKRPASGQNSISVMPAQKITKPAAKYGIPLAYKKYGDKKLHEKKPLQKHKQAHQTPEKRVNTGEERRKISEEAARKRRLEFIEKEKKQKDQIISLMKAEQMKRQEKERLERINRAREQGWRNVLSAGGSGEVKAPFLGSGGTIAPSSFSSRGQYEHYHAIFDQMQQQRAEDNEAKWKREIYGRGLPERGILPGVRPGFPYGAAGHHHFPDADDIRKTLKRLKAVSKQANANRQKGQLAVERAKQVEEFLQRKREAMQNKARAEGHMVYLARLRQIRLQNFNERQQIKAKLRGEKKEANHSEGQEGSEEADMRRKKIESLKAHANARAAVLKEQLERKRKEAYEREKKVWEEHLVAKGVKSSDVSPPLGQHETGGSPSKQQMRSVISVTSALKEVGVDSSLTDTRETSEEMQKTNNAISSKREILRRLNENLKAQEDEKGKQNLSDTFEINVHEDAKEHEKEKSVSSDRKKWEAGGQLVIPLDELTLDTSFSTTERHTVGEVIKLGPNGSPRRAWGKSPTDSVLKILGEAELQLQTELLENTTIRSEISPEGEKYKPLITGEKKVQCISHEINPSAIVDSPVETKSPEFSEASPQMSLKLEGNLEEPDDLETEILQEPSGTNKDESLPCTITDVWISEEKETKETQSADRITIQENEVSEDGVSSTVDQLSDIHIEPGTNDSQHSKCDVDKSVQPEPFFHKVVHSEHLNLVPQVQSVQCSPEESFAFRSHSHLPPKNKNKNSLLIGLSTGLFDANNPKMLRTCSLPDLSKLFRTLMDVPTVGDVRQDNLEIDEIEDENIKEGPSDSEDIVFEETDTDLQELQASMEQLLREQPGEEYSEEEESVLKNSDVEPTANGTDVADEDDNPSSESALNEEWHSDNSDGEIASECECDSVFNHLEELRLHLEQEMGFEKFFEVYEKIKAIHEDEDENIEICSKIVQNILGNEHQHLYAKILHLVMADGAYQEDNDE

[2] = test system: Tyrosine-protein kinase ABL1 (Homo sapiens), P00519 [Q252H]; settings: Compound concentration 1000.0 nM
[3] = molecular target: T2, TGF-beta receptor type-1 (Homo sapiens) (UniProt P36897); settings: Compound concentration 1000.0 nM
T2 sequence (whole entry): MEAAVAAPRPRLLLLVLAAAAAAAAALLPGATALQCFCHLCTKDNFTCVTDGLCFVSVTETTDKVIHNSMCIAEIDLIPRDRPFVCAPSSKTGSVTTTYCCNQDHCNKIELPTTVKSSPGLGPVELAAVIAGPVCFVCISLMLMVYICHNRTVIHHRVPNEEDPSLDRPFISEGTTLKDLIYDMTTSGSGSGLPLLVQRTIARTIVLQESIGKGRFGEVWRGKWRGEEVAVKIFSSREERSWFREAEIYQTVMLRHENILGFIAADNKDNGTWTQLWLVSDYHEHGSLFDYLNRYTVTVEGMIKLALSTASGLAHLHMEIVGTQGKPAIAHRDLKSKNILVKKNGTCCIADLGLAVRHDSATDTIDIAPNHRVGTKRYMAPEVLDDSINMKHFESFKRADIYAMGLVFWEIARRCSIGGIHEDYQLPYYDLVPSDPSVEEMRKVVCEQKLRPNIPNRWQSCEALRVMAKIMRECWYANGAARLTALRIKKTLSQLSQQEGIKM

[4] = test system: Epidermal growth factor receptor (Homo sapiens), P00533 [UNDEFINED MUTATION]; settings: Compound concentration 1000.0 nM
[5] = molecular target: Protein-tyrosine kinase 6 (Homo sapiens) (UniProt Q13882); settings: Compound concentration 1000.0 nM
[6] = molecular target: 5-hydroxytryptamine receptor 1D (Homo sapiens) (UniProt P28221); settings: Compound concentration 10.0 uM
[7] = molecular target: Citron Rho-interacting kinase (Homo sapiens) (UniProt O14578); settings: Compound concentration 1000.0 nM
[8] = molecular target: Mitogen-activated protein kinase kinase kinase 1 (Homo sapiens) (UniProt Q13233); settings: Compound concentration 1000.0 nM
[9] = molecular target: Mast/stem cell growth factor receptor Kit (Homo sapiens) (UniProt P10721); settings: Compound concentration 1000.0 nM
[10] = molecular target: Leukocyte tyrosine kinase receptor (Homo sapiens) (UniProt P29376); settings: Compound concentration 1000.0 nM
[11] = test system: Tyrosine-protein kinase ABL1 (Homo sapiens), P00519 [F317I]; settings: Compound concentration 1000.0 nM
[12] = molecular target: LIM domain kinase 2 (Homo sapiens) (UniProt P53671); settings: Compound concentration 1000.0 nM
[13] = molecular target: Serine/threonine-protein kinase PAK 2 (Homo sapiens) (UniProt Q13177); settings: Compound concentration 1000.0 nM
[14] = molecular target: Alpha-1B adrenergic receptor (Homo sapiens) (UniProt P35368); settings: Compound concentration 10.0 uM
[15] = molecular target: Transient receptor potential cation channel subfamily M member 6 (Homo sapiens) (UniProt Q9BX84); settings: Compound concentration 1000.0 nM
[16] = molecular target: T3, Mitogen-activated protein kinase 13 (Homo sapiens) (UniProt O15264); settings: Compound concentration 1000.0 nM
T3 sequence (whole entry): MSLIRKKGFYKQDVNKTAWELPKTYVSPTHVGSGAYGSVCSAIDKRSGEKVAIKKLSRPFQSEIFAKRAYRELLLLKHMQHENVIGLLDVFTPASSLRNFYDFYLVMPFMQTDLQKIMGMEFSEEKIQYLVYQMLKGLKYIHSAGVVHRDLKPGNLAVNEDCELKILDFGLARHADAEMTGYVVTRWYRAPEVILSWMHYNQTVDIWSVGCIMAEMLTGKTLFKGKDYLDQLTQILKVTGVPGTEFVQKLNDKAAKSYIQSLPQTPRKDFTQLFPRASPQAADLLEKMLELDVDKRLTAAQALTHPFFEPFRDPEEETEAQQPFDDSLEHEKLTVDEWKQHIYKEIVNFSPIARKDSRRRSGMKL

Sequence of 5-hydroxytryptamine receptor 1D (Homo sapiens) (P28221 whole entry): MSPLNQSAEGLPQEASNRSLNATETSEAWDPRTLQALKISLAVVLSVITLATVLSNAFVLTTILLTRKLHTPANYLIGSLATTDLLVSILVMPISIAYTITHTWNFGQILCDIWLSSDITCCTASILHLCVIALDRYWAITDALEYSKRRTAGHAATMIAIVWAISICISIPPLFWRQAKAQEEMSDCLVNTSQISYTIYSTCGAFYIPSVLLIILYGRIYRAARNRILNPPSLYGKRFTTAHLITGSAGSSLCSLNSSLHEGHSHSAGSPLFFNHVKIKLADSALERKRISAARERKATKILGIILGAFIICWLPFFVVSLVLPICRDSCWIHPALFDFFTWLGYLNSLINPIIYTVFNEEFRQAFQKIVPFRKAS
Sequence of Transient receptor potential cation channel subfamily M member 6 (Homo sapiens) (Q9BX84 whole entry): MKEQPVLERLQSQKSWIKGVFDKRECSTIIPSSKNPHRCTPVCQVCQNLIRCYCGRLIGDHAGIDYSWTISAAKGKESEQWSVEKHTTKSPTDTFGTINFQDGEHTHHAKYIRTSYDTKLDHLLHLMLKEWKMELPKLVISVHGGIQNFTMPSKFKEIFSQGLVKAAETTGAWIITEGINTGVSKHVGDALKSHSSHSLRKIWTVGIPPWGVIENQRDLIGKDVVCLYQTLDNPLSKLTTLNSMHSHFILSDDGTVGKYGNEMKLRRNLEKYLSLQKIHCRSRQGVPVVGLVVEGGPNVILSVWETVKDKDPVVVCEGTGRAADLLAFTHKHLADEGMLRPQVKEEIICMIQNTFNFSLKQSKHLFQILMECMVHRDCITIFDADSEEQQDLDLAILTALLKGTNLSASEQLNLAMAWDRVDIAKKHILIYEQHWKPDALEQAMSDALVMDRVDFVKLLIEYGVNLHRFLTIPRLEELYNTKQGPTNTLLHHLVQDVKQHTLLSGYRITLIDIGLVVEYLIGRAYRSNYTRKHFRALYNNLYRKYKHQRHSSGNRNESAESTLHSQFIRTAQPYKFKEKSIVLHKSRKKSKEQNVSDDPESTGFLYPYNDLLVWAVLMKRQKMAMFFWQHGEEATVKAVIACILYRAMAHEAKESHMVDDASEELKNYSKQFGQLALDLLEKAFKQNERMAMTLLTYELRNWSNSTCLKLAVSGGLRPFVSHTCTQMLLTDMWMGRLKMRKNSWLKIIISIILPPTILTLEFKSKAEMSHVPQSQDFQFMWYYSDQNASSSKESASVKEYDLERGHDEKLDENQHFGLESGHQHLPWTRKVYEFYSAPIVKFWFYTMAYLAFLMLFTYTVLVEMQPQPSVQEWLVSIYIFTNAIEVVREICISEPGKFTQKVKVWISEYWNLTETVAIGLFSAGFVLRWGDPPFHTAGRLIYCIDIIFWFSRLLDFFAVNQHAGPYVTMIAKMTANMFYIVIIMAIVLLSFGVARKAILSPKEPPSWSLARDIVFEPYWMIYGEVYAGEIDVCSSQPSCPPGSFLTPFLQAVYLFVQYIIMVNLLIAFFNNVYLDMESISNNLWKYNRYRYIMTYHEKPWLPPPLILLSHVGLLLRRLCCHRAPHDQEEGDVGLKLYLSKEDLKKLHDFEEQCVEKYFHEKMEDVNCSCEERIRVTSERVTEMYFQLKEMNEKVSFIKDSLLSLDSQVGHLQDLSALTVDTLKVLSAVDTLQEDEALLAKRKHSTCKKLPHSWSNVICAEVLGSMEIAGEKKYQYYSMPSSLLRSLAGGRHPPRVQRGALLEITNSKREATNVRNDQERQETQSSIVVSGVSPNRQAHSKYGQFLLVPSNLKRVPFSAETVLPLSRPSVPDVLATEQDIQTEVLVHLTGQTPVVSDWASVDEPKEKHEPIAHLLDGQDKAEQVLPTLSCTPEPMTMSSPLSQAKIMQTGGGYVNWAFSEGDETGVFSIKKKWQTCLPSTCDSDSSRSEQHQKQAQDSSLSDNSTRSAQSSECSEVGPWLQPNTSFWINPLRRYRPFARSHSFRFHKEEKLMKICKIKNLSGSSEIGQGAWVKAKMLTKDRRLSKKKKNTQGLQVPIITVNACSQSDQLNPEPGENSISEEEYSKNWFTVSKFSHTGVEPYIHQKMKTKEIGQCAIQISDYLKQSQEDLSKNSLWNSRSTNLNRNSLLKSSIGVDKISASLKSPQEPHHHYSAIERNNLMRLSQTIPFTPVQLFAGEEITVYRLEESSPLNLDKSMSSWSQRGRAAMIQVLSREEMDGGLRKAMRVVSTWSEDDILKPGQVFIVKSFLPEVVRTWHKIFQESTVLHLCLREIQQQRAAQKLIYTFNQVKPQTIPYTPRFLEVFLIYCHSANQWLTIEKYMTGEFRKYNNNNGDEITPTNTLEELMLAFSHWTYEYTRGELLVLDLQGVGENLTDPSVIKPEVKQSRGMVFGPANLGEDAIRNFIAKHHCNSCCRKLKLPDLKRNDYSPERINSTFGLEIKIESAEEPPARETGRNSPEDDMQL
Sequence of Mast/stem cell growth factor receptor Kit (Homo sapiens) (P10721 whole entry): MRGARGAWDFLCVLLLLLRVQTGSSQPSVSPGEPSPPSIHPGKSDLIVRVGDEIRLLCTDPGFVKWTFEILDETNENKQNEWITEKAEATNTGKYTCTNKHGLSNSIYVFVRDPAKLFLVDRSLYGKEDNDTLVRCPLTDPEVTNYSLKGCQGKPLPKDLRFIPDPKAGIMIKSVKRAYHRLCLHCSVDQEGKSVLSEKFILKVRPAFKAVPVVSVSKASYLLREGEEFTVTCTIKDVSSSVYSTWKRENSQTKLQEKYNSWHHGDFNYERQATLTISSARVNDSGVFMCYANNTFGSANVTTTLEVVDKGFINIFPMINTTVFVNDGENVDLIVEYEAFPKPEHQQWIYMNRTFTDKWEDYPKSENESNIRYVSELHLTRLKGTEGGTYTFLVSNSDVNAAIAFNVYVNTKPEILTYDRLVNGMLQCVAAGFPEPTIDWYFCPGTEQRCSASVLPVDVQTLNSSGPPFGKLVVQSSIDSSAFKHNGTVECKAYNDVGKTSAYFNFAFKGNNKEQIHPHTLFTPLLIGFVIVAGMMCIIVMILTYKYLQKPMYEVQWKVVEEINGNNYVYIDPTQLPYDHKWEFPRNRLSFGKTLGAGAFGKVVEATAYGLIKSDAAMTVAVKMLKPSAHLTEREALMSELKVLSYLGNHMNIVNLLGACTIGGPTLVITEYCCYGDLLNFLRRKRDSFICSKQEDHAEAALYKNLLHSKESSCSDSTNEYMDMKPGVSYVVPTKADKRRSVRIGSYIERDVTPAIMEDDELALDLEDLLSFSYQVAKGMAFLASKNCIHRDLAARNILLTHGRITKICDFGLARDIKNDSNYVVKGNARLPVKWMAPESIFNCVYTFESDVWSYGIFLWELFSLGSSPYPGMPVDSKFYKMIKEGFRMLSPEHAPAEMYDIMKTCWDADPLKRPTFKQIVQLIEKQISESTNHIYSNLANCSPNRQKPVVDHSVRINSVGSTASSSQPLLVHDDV
Sequence of Alpha-1B adrenergic receptor (Homo sapiens) (P35368 whole entry): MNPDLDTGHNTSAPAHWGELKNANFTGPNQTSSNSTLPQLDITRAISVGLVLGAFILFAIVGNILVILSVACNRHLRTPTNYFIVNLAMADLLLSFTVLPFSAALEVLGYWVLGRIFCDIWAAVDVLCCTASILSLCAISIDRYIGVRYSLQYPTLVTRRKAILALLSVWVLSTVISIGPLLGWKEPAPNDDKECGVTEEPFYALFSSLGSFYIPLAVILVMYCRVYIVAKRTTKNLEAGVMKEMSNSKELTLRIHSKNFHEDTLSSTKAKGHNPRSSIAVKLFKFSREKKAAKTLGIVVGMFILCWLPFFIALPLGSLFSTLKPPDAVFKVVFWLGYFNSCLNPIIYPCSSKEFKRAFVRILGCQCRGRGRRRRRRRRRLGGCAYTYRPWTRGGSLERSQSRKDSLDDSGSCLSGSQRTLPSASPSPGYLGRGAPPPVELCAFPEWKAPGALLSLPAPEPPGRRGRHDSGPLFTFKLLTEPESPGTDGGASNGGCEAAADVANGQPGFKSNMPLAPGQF
Sequence of Epidermal growth factor receptor (Homo sapiens), P00533 [UNDEFINED MUTATION] (P00533 whole entry, looked up, change not shown): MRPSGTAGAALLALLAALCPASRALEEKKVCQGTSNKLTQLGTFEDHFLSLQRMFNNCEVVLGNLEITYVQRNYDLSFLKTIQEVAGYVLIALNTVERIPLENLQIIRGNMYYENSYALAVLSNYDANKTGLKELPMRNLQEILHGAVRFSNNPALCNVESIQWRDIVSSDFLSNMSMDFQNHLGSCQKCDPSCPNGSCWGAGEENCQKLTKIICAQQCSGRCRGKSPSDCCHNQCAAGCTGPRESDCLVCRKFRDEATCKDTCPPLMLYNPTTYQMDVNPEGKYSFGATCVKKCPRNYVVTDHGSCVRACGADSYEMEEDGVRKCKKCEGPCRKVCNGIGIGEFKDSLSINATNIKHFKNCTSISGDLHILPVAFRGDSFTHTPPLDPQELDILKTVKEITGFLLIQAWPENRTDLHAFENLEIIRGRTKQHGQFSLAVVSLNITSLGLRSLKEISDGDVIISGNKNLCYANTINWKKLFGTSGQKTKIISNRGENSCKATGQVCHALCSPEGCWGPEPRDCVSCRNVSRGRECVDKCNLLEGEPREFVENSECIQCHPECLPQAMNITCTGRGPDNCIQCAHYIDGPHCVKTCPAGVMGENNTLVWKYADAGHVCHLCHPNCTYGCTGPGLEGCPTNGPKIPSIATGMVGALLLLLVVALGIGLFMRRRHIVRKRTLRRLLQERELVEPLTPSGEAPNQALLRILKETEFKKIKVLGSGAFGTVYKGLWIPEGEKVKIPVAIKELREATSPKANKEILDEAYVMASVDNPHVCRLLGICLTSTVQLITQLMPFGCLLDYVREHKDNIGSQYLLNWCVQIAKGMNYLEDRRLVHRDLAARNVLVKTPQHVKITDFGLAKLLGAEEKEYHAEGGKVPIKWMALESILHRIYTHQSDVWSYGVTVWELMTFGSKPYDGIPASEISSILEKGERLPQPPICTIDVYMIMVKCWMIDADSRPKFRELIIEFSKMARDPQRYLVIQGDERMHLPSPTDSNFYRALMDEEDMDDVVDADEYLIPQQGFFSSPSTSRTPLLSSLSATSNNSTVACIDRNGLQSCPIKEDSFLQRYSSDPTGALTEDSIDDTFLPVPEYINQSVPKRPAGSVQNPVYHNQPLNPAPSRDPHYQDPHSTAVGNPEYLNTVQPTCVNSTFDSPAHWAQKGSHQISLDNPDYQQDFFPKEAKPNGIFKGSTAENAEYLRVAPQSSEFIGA

**Q.** With `Cc1nc(C2CCN(C(=O)c3ccc(OC(F)(F)F)cc3N)CC2)c2ncc(N3CCN(C)CC3)cc2n1` [BAY-693] as the compound, how does the residual activity [1] read?
**A.** Its residual activity is 97%.

**Q.** And the residual activity [2]?
**A.** Its residual activity is 81%.

**Q.** And the residual activity [3]?
**A.** Its residual activity is 80%.

**Q.** And the residual activity [4]?
**A.** Its residual activity is 91%.

**Q.** What about the residual activity [5] of the same compound?
**A.** The residual activity was 100%.

**Q.** And the inhibition [6]?
**A.** Its inhibition is -2.17%.

**Q.** What about the residual activity [7] of the same compound?
**A.** The residual activity was 100%.

**Q.** And the residual activity [8]?
**A.** The residual activity was 82%.

**Q.** And the residual activity [9]?
**A.** The residual activity was 76%.

**Q.** And the residual activity [10]?
**A.** The residual activity was 86%.

**Q.** And the residual activity [11]?
**A.** Its residual activity is 76%.

**Q.** And the residual activity [12]?
**A.** The residual activity was 95%.

**Q.** And the residual activity [13]?
**A.** Its residual activity is 64%.

**Q.** What about the inhibition [14] of the same compound?
**A.** Its inhibition is 20.2%.

**Q.** What about the residual activity [15] of the same compound?
**A.** Its residual activity is 100%.

**Q.** What about the residual activity [16] of the same compound?
**A.** Its residual activity is 100%.

**Q.** What does the source list for `CN1CCN(c2cnc3c(C4CCN(C(=O)c5ccc(OC(F)(F)F)cc5N)CC4)ncnc3c2)CC1` [BAY-885]?
**A.** residual activity [1]: 85%; residual activity [2]: 79%; residual activity [3]: 90%; residual activity [4]: 77%; residual activity [5]: 100%; inhibition [6]: 16%; residual activity [7]: 100%; residual activity [8]: 100%; residual activity [9]: 85%; residual activity [10]: 49%; residual activity [11]: 99%; residual activity [12]: 100%; residual activity [13]: 100%; inhibition [14]: 16.4%; residual activity [15]: 100%; residual activity [16]: 100%
